Values quoted from earlier work as cited in publication PMC7036871, “Identification and Characterization of pantocin wh-1, a Novel Cyclic Polypeptide Produced by Pantoea dispersa W18” (Molecules, 2020).
Values after ≈ are worked out from the molar mass of the structure shown. Where two headings read alike, the source gives them in different places.

Tested on: M. tuberculosis
Set-up: method as in 8 sources, ref [15],[16] = [15]; PMID 24684906; doi:10.1016/j.chembiol.2014.01.014; 15. Gavrish E. Sit C.S. Cao S. Kandror O. Spoering A. Peoples A. Ling L. Fetterman A. Hughes D. Bissell A. Lassomycin, a ribosomally synthesized cyclic peptide, kills mycobacterium tuberculosis by tar || [16]; PMID 24766844; doi:10.1016/j.chembiol.2014.04.002; 16. Parish T. Targeting mycobacterial proteolytic complexes with natural products Chem. Biol. 2014 21 437 438 10.1016/j.chembiol.2014.04.002 24766844 ||| ref [17] = [17]; PMID 25421483; doi:10.1128/AAC.04054-14; 17. Gao W. Kim J.Y. Anderson J.R. Akopian T. Hong S. Jin Y.Y. Kandror O. Kim J.W. Lee I.A. Lee S.Y. The cyclic peptide ecumicin targeting ClpC1 is active against Mycobacterium tuberculosis in vivo Ant ||| ref [18],[19] = [18]; PMID 21969594; doi:10.1073/pnas.1110385108; 18. Sass P. Josten M. Famulla K. Schiffer G. Sahl H.G. Hamoen L. Brotz-Oesterhelt H. Antibiotic acyldepsipeptides activate ClpP peptidase to degrade the cell division protein FtsZ Proc. Natl. Acad. Sc || [19]; PMID 22123255; doi:10.1128/JB.06142-11; 19. Ollinger J. O’Malley T. Kesicki E.A. Odingo J. Parish T. Validation of the Essential ClpP Protease in Mycobacterium tuberculosis as a Novel Drug Target J. Bacteriol. 2012 194 663 668 10.1128/JB.06 ||| ref [20] = [20]; PMID 22987724; doi:10.1002/emmm.201201689; 20. Hartkoorn R.C. Sala C. Neres J. Pojer F. Magnet S. Mukherjee R. Uplekar S. Boy-Rottger S. Altmann K.H. Cole S.T. Towards a new tuberculosis drug: Pyridomycin-nature’s isoniazid Embo. Mol. Med. 201 ||| ref [21] = [21]; PMID 10747933; doi:10.1074/jbc.M000569200; 21. Kremer L. Douglas J.D. Baulard A.R. Morehouse C. Guy M.R. Alland D. Dover L.G. Lakey J.H. Jacobs W.R. Brennan P.J. Thiolactomycin and related analogues as novel anti-mycobacterial agents targeting ||| ...
Conditions: anti-TB, cited from earlier work

## Cyclomarin A
Target ClpC1, ref [22],[23]
  MIC: 0.3 to 2.5 µM

## Ilamycins
Target not given, ref [25]
  MIC: 0.0098 µM

## Teixobactin
Target lipid II, ref [24]
  MIC: 0.125 µM

## Lassomycin
Target ClpC1, ref [15],[16]
  MIC: 0.42 to 1.57 µM

## C=C/C(C)=C/[C@@]1(C)SC(=O)C(C)=C1O [Thiolactomycin]
Target β-ketoacyl-ACP synthase, ref [21]
  MIC: 92.5 µM (≈ 19.5 µg/mL)

## Ecumicin
Target ClpC1, ref [17]
  MIC: 0.13 to 0.3 µM
